Source: patent US6593339B1, “Use of compounds as antibacterial agents” (AstraZeneca AB, priority 1999, dated 2003)

Test system: Helicobacter pylori Reference Strain NCTC 11 637
Assay: Agar well diffusion test: inhibition zones around wells on blood agar plates
Type: cell-based
Details: 30 μl per 3 mm well, incubated four days
Method: Strain: Helicobacter pylori Reference Strain NCTC 11 637 (National Type Culture Collection, from Smittskyddsinstitutet in Solna, Sweden), an Antibiotic Sensitive Reference Strain
Helicobacter pylori was grown on blood agar plates, having a diameter of 90 mm. for three days under microaerophilic conditions at 37° C. The bacteria were suspended in PBS (phosphate buffer saline) to approximately 10^8 cfu/ml. Approximately 2 ml of the suspension was added to one agar plate and spread even on the surface of the agar. Overflow was removed with a syringe. Wells, like small holes, 3 mm in diameter, were made in the agarplate by removing agar. Three wells per plate were made. […] 30 μl of the solution was added to the wells. The plates were incubated for four days before they were checked for inhibition zones around the wells.

C[S+](C)[O-] [DMSO, Di-methyl-sulphate-oxide]
inhibition zone around each well (solution 20 μg/ml): No inhibition zones

COc1ccc2cc([C@H](C)C(=O)O)ccc2c1 [Naproxen]
zone of inhibition at 10000 µg/mL (Helicobacter pylori, NCTC11, 96 h, stock solution 10000 μg/ml, read-out: inhibition zone around each well): 16.6 mm
inhibition zone around each well (stock solution 100 μg/ml): No inhibition zones
inhibition zone around each well (stock solution 1000 μg/ml): No inhibition zones

COc1ccc2cc(C(C)C(=O)OCCCCO[N+](=O)[O-])ccc2c1 (stereo not drawn) [formula Ia]
zone of inhibition at 100 µg/mL (Helicobacter pylori, NCTC11, 96 h, stock solution 100 μg/ml, read-out: inhibition zone around each well): 10.4 mm
zone of inhibition at 1000 µg/mL (Helicobacter pylori, NCTC11, 96 h, stock solution 1000 μg/ml, read-out: inhibition zone around each well): 13 mm
inhibition zone around each well (stock solution 10000 μg/ml): large
inhibition zone around each well (stock solution 100000 μg/ml): large

CC(=O)N[C@H](C(=O)O)C(C)(C)SN=O [SNAP, S-nitroso-N-acetyl-penicillamin]
inhibition zone around each well (stock solution 10000 μg/ml): No inhibition zones
